Test results: the supplement of paper PMC10949913

Tests used:
Conditions in all cases: 48 h
[1] = system: CU-ACC1; test: area under concentration-response curve (viability) (AUC (a.u.)); higher = less active
Outline: (§1)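 For each of three adrenocortical carcinoma cell lines, 500–1,000 cells/well were placed in 5 µL medium in 1,536-well plates. A 23 nL volume of every library compound was added at 11 concentrations. Following 48 h, a 15-minute room-temperature CellTiter-Glo step preceded luminescence reading, with signals normalised per plate to vehicle and empty-well controls. AC50 and area under the curve were derived by curve fitting, retaining only inhibitory or non-responding curve classes.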

[2] = system: CU-ACC2; test: as above
Outline: as §1

[3] = system: NCI-H295R; test: as above
Outline: as §1

[4] = system: NCI-H295R; test: AC50 viability; higher = less potent
Outline: as §1

| SMILES | area under concentration-response curve [1] | area under concentration-response curve [2] | area under concentration-response curve [3] | AC50 viability [4] [µM] |
| --- | --- | --- | --- | --- |
| COc1ccc(-c2ccc3c(N4CCOCC4)nc(N4C[C@@H](C)O[C@@H](C)C4)nc3n2)cc1CO | 464 | 469 | 468 | 0.934 |
| O=C(NC1CC1)c1cccc(-c2ccc3c(NC(=O)C4CC4)n[nH]c3c2)c1 | 495 | 542 | 496 | 20.9 |
| Cc1[nH]c2ccccc2c1CCNCc1ccc(/C=C/C(=O)NO)cc1 | 378 | 403 | 376 | 4.17 |
| CCOc1ccc(Nc2nc(-c3c(C)nc4ccccn34)cs2)cc1 | 493 | 497 | 487 | 2.95 |
| Cc1cccc(/C=N/Nc2cc(N3CCOCC3)nc(OCCc3ccccn3)n2)c1 | 531 | 573 | 518 | 18.6 |
| CCN1CCN(CC1)CC(=O)NC2=CC=C(C3=C2C4=C(S3)C=CC=C4)C5=C6O\C(=C/C(=O)C6=CC=C5)N7CCOCC7 | 555 | 610 | 494 | 2.57 |
| C[C@@H]1COCCN1c1cc(C2([S@+](C)(=N)[O-])CC2)nc(-c2ccnc3[nH]ccc23)n1 | 524 | 491 | 525 | 16.6 |
| CCN1CCN(Cc2ccc(NC(=O)c3ccc(C)c(NC(=O)c4cncc(-c5cccs5)c4)c3)cc2C(F)(F)F)CC1 | 501 | 521 | 432 | 7.42 |
| COc1cc([C@@H]2c3cc4c(cc3[C@H](O)[C@H]3COC(=O)[C@@H]23)OCO4)cc(OC)c1OC | 504 | 467 | 453 | 0.934 |
| COc1cc(OC)c(/C=C/[S+](=O)([O-])Cc2ccc(OC)c(OP(=O)(O)O)c2)c(OC)c1 | 503 | 484 | 407 | 0.0295 |
| COc1ccc(-c2oc3ncnc(N)c3c2-c2ccc(NC(=O)Nc3cc(C(F)(F)F)ccc3F)cc2)cc1 | 469 | 518 | 471 | 13.2 |
| COc1ccc([S+](=O)([O-])Nc2cc(-c3csc(C#N)c3)ccc2C)cc1 | 489 | 529 | 393 | 0.0934 |
| COc1cc([C@@H]2c3cc4c(cc3[C@@H](O[C@@H]3O[C@@H]5CO[C@@H](c6cccs6)O[C@H]5[C@H](O)[C@H]3O)[C@H]3COC(=O)[C@H]23)OCO4)cc(OC)c1O | 509 | 608 | 532 | 11.8 |
| COc1cc(OC)c(/C=C/[S+](=O)([O-])Cc2ccc(OC)c(NCC(=O)[O-])c2)c(OC)c1 | 464 | 479 | 386 | 0.059 |
| CN(C)C/C=C/C(=O)Nc1cccc(C(=O)Nc2cccc(Nc3ncc(Cl)c(-c4c[nH]c5ccccc45)n3)c2)c1 | 434 | 437 | 444 | 1.66 |
| CO[C@H]1C[C@H]2OC[C@@]2(OC(C)=O)[C@H]3[C@H](OC(=O)C4=CC=CC=C4)[C@]5(O)C[C@H](OC(=O)[C@H](O)[C@@H](NC(=O)OC(C)(C)C)C6=CC=CC=C6)/C(=C(/[C@@H](OC)C(=O)[C@]13C)C5(C)C)C | 520 | 565 | 382 | 0.934 |
| CN1c2ccccc2C(=O)N2CCc3c([nH]c4ccccc34)C21 (stereo not drawn) | 506 | 633 | 512 | 2.63 |
| C[C@@]1(C(=O)Nc2ccc(F)nc2)CCCN1c1nc(Nc2cc(C3CC3)[nH]n2)c2cccn2n1 | 505 | 480 | 375 | 0.148 |
| COC(=O)Nc1ccc(-c2nc(N3CCOCC3)c3cnn(C4CCN(Cc5cccnc5)CC4)c3n2)cc1 | 499 | 546 | 444 | 16.6 |
| COC(=O)[C@@H]1[C@H]2C[C@H]3c4[nH]c5ccccc5c4CCN3C[C@@H]2CC[C@@H]1O | 443 | 458 | 442 | 18.6 |
| CC(C)n1ncnc1-c1cn2c(n1)-c1ccc(O[C@@H](C)C(N)=O)cc1OCC2 | 364 | 582 | 491 | 1.05 |

| SMILES | area under concentration-response curve [1] | area under concentration-response curve [2] | area under concentration-response curve [3] | AC50 viability [4] [µM] |
| --- | --- | --- | --- | --- |
| O=C(/C=C/c1cccnc1)NCCCCC1CCN(C(=O)c2ccccc2)CC1 | 300 | 355 | 403 | 0.0209 |
| Cc1ccc([S+](=O)([O-])Nc2cc(-c3ccc(C#N)s3)ccc2C)cc1 | 506 | 507 | 373 | 0.0417 |
| Cc1nc(NC(=O)N2CCCC2C(N)=O)sc1-c1ccnc(C(C)(C)C(F)(F)F)c1 (stereo not drawn) | 531 | 626 | 548 | 13.2 |
| O=C(Nc1ncc(-c2cc(C(F)F)nn2-c2c(Cl)cccc2Cl)s1)C1CC1 | 501 | 465 | 467 | 0.661 |
| CC(/C=C/[C@@H]1C[C@]1(C)c1ccc2c(c1)C(C)(C)CCC2(C)C)=C\C(=O)O | 525 | 650 | 538 | 18.6 |
| COc1ccccc1C(=O)Nc1cc2c(cc1N1CCCCC1)n(C)c(=O)n2C | 426 | 434 | 422 | 16.6 |
| CC(C)c1onc(-c2c(Cl)cccc2Cl)c1COc1ccc(/C=C/c2cccc(C(=O)O)c2)c(Cl)c1 | 442 | 508 | 480 | 13.2 |
| CCNCC[S+]([O-])(=O)NC[C@]1(S\C(=N/N1C(=O)C(C)(C)C)NC(=O)C(C)(C)C)C2=CC=CC=C2 | 452 | 544 | 415 | 0.209 |
| C[C@@H]1C[C@H]2[C@@H]3\C=C(C)/C4=C/C5=C(C[C@]4(C)[C@H]3[C@@H](O)C[C@]2(C)[C@@]1(O)C(=O)COC(C)=O)C=N[N]5C6=CC=CC=C6 | 513 | 608 | 529 | 20.9 |
| C/C(=C\c1csc(C)n1)[C@@H]1C[C@@H]2O[C@]2(C)CCC[C@H](C)[C@H](O)[C@@H](C)C(=O)C(C)(C)[C@@H](O)CC(=O)N1 | 478 | 485 | 460 | 2.09 |
| CCOC(=O)[C@H](CCc1ccccc1)N[C@@H](C)C(=O)N1CCC[C@H]1C(=O)O | 300 | 458 | 417 | 10.5 |
| COc1ccc2c(c1OC)C(=O)O[C@H]2[C@H]1c2c(cc3c(c2OC)OCO3)CCN1C | 493 | 608 | 519 | 20.9 |
| Oc1ccc([C@@H]2Oc3ccc(O)cc3[C@@H]3CCC[C@@H]32)cc1 | 485 | 535 | 500 | 13.2 |
| C[C@H]1Oc2cc(cnc2N)-c2c(nn(C)c2C#N)CN(C)C(=O)c2ccc(F)cc21 | 529 | 557 | 505 | 23.5 |
| CN1CCN(CC1)C2=CC3=C([NH]C(=N3)C/4=C(\N)C5=C(F)C=CC=C5NC4=O)C=C2 | 485 | 574 | 479 | 20.9 |
| CC[C@]1(O)C[C@H]2CN(CCC3=C([NH]C4=C3C=CC=C4)[C@@](C2)(C(=O)OC)C5=C(OC)C=C6N(C)[C@H]7[C@](O)([C@H](OC(C)=O)[C@]8(CC)\C=C/CN9CC[C@]7([C@H]89)C6=C5)C(=O)OC)C1 | 504 | 560 | 444 | 3.32 |
| COc1cc([C@@H]2c3cc4c(cc3[C@H](O)[C@H]3COC(=O)[C@H]23)OCO4)cc(OC)c1OC | 452 | 464 | 359 | 0.0209 |
| COc1cc(C(N)=O)ccc1NC(=O)[C@@H]1N[C@@H](CC(C)(C)C)[C@@]2(C(=O)Nc3cc(Cl)ccc32)[C@H]1c1cccc(Cl)c1F | 495 | 604 | 536 | 20.9 |
| COc1c(C)c2c(c(O)c1C/C=C(\C)CCC(=O)O)C(=O)OC2 | 467 | 561 | 482 | 0.59 |
| COc1ccc(N(C)c2nc(C)nc3ccccc23)cc1 | 491 | 410 | 401 | 0.00934 |
| C=CCn1c(=O)c2cnc(Nc3ccc(N4CCN(C)CC4)cc3)nc2n1-c1cccc(C(C)(C)O)n1 | 452 | 531 | 393 | 1.86 |

| SMILES | area under concentration-response curve [1] | area under concentration-response curve [2] | area under concentration-response curve [3] | AC50 viability [4] [µM] |
| --- | --- | --- | --- | --- |
| CCC1=C[C@@H]2CN(C1)Cc1c([nH]c3ccccc13)[C@@](C(=O)OC)(c1cc3c(cc1OC)N(C)[C@H]1[C@@](O)(C(=O)OC)[C@H](OC(C)=O)[C@]4(CC)C=CCN5CC[C@]31[C@@H]54)C2 | 507 | 573 | 473 | 4.56 |
| COc1ccc(-n2c(C)c([N+](=O)[O-])c3ccc(O)cc32)cc1 | 519 | 615 | 549 | 14.8 |
| CC(C)NC(=O)[C@H]1CC[C@@H](n2c(NC(=O)c3ccc(F)cc3)nc3ccc(CN4CCC(C(C)(C)O)CC4)cc32)CC1 | 465 | 626 | 612 | 9.11 |
| COc1ccc(-n2c(SCCCN3C(=O)c4cccc5cccc(c45)C3=O)nnc2-c2ccncc2)cc1 | 422 | 406 | 406 | 3.32 |
| N#Cc1c(NC(=O)c2cccc3ccccc23)sc2c1CCCC2 | 480 | 551 | 458 | 0.372 |
| Cc1ncc(NC(=O)c2cccc(C(F)(F)F)c2)cc1-c1cnc(OC2CCOCC2)c(N2CCOCC2)c1 | 541 | 535 | 560 | 20.9 |
| O=C(O)c1ccc2c(c1)nc(Nc1cccc(Cl)c1)c1ccncc12 | 517 | 570 | 509 | 2.63 |
| Oc1ccc(Nc2nc(-c3ccc(Cl)cc3)cs2)cc1 | 403 | 496 | 474 | 16.6 |
| CCCCc1ccc2[nH]c(NC(=O)OC)nc2c1 | 480 | 511 | 438 | 0.148 |
| NC(=O)Nc1cc(-c2ccc(CN3CCOCC3)cc2)sc1C(N)=O | 540 | 597 | 519 | 6.61 |
| COC1=CC=C(C=C1)C2=NC3=CC(=CC=C3[NH]2)/C4=N/NC(=O)CC4C (stereo not drawn) | 532 | 632 | 541 | 18.6 |
| COc1cc(NCc2ccc3nc(N)nc(N)c3c2C)cc(OC)c1OC | 447 | 476 | 446 | 20.9 |
| O=C\1NC(=O)\C(=C1C2=C[NH]C3=C2C=CC=C3)C4=C[NH]C5=C4C=CC=C5 | 504 | 562 | 510 | 16.6 |
| C[C@]12CC[C@@H]3c4ccc(O)cc4CC[C@H]3[C@@H]1CC[C@@H]2O | 437 | 478 | 471 | 11.8 |
| Nc1nc2ccc(OC(F)(F)F)cc2s1 | 493 | 431 | 503 | 0.00372 |
| NC(=O)[C@@H](CCC(F)(F)F)N(Cc1ccc(-c2ncon2)cc1F)[S+](=O)([O-])c1ccc(Cl)cc1 | 441 | 476 | 469 | 20.9 |
| CN1CCN([C@H]2CC[C@H](n3cc(-c4ccc(Oc5ccccc5)cc4)c4c(N)ncnc43)CC2)CC1 | 488 | 517 | 481 | 9.34 |
| O=C1\C=C(OC2=C1SC=C2C3=CC=C4OCCOC4=C3)\N5CCOCC5 | 293 | 276 | 350 | 0.0742 |
| COC1=CC=CC2=C1C(=NC(=N2)C3=CC=CS3)NN4C(=O)\C=C(C)/C4=O | 423 | 489 | 438 | 5.9 |
| CC(C)NC[C@@H](C(=O)N1CCN(c2ncnc3c2[C@H](C)C[C@H]3O)CC1)c1ccc(Cl)cc1 | 487 | 555 | 417 | 3.72 |
